Assay results: ChEMBL document CHEMBL5715945 (Cancer Biol Ther, 2010)
Active and inactive are the calls of the source. The rule behind the calls is not given here.

Legend:
[1] = biological target: Focal adhesion kinase 1 (Mus musculus) (UniProt P34152); experiment: Inhibition of FAK phosphorylation at Tyr397 residue in mouse ID8 cells harbouring mCherry red fluorescent protein at 0.1 to 1 uM incubated for 1 hr by immunoblotting analysis; type: cell-based; settings: dose 0.1-1 µM
[2] = Metabolic stability in human liver microsomes assessed as half life; type: ADME, Microsome
[3] = biological target: Focal adhesion kinase 1 (Mus musculus) (UniProt P34152); experiment: Inhibition of FAK phosphorylation at Tyr397 residue in mouse 4T1 cells harbouring mCherry red fluorescent protein at 0.1 to 1 uM incubated for 1 hr by immunoblotting analysis; type: cell-based; settings: dose 0.1-1 µM
[4] = biological target: Focal adhesion kinase 1 (Mus musculus) (UniProt P34152); experiment: Inhibition of FAK phosphorylation at Tyr397 residue in mouse 4T1 cells harbouring mCherry red fluorescent protein at 0.1 to 1 uM incubated for 60 mins followed by compound washout measured after 60 mins by immunoblotting analysis; type: cell-based; settings: dose 0.1-1 µM
4T1 [5] = experiment: Inhibition of cell migration in mouse 4T1 cells assessed as wound closure at 1 uM incubated for 22 hrs by wound healing assay (reference value: 89%); type: functional; set-up: scale not given: the % may be the effect or the level left
4T1 [6] = experiment: Inhibition of cell migration in mouse 4T1 cells incubated for 4 hrs by millicell-motility assay; type: functional, cell-based; settings: dose 0.1-1 µM
4T1 [7] = experiment: Induction of apoptosis in mouse 4T1 adherent cells at 0.1 to 1 uM incubated for 24 to 48 hrs by PI staining based flow cytometry analysis; type: functional, cell-based; settings: dose 0.1-1 µM, time 24-48 hrs
4T1 [8] = experiment: Induction of apoptosis in mouse 4T1 adherent cells at 1 uM incubated for 72 hrs by PI staining based flow cytometry analysis; type: functional, cell-based
4T1 [9] = experiment: Induction of cell cycle arrest in mouse 4T1 adherent cells assessed as accumulation at G2/M phase at 1 uM measured after 72 hrs by PI staining based flow cytometry analysis (reference value: 7.9%); type: functional
4T1 [10] = experiment: Induction of cell cycle arrest in mouse 4T1 adherent cells assessed as accumulation at G2/M phase at 1 uM measured after 72 hrs by PI staining based flow cytometry analysis (reference value: 5.6%); type: functional
4T1 [11] = experiment: Induction of apoptosis in mouse 4T1 suspended cells assessed as increase in cleaved caspase 3 expression at 0.4 uM incubated for 24 hrs by immunoblotting analysis; type: functional, cell-based
4T1 [12] = experiment: Effect on p130Cas phosphorylation at Tyr249 residue in mouse 4T1 cultured as 3D spheroids at 0.1 uM incubated for 24 hrs by immunoblotting analysis; type: functional, cell-based
4T1 [13] = experiment: Effect on p130Cas phosphorylation in mouse 4T1 cultured as 3D spheroids at 0.1 to 1 uM incubated for 24 hrs by immunoblotting analysis; type: functional, cell-based; settings: dose 0.1-1 µM
4T1 [14] = experiment: Effect on p130Cas phosphorylation in mouse 4T1 cultured as […] at 0.1 to 1 uM incubated for 24 hrs by immunoblotting analysis; type: functional, cell-based; settings: dose 0.1-1 µM
4T1 [15] = experiment: Inhibition of colony formation in mouse 4T1 cells assessed as reduction in cell size measured after 10 days by phase contrast microscopy analysis; type: functional, cell-based; settings: dose 0.4-1 µM, time 10.0 day
4T1 [16] = experiment: Inhibition of colony formation in mouse 4T1 cells assessed as reduction in cell number at 0.4 to 1 uM measured after 4 days by phase contrast microscopy analysis; type: functional, cell-based; settings: dose 0.4-1 µM, time 4.0 day
ID8 = experiment: Antitumor activity against mouse ID8 suspended cells assessed as reduction in cell viability measured after 72 hrs by trypan blue staining based analysis; type: functional; settings: dose 0.1 µM
[17] = biological target: Tyrosine-protein kinase Lck (Homo sapiens) (UniProt P06239); experiment: Inhibition of Lck (unknown origin) at 1 uM relative to control; values are per cent of control
[18] = biological target: Tyrosine-protein kinase JAK2 (Homo sapiens) (UniProt O60674); experiment: Inhibition of JAK2 (unknown origin) at 1 uM relative to control; values are per cent of control
[19] = biological target: Serine/threonine-protein kinase Nek6 (Homo sapiens) (UniProt Q9HC98); experiment: Inhibition of NEK6 (unknown origin) at 1 uM relative to control; values are per cent of control
[20] = biological target: Tyrosine-protein kinase Lck (Homo sapiens) (UniProt P06239); experiment: Inhibition of Lck (unknown origin) at 0.1 uM relative to control; values are per cent of control
[21] = biological target: Vascular endothelial growth factor receptor 2 (Homo sapiens) (UniProt P35968); experiment: Inhibition of KDR (unknown origin) at 0.1 uM relative to control; values are per cent of control
[22] = biological target: Tyrosine-protein kinase Fyn (Homo sapiens) (UniProt P06241); experiment: Inhibition of Fyn (unknown origin) at 0.1 uM relative to control; values are per cent of control
[23] = biological target: Mast/stem cell growth factor receptor Kit (Homo sapiens) (UniProt P10721); experiment: Inhibition of c-kit (unknown origin) at 1 uM relative to control; values are per cent of control
[24] = biological target: RAF proto-oncogene serine/threonine-protein kinase (Homo sapiens) (UniProt P04049); experiment: Inhibition of c-RAF (unknown origin) at 1 uM relative to control; values are per cent of control
[25] = biological target: Proto-oncogene tyrosine-protein kinase Src (Homo sapiens) (UniProt P12931); experiment: Inhibition of c-SRC (unknown origin) at 1 uM relative to control; values are per cent of control
[26] = biological target: Rho-associated protein kinase 1 (Homo sapiens) (UniProt Q13464); experiment: Inhibition of ROCK1 (unknown origin) at 1 uM relative to control; values are per cent of control
[27] = biological target: Dual specificity mitogen-activated protein kinase kinase 1 (Homo sapiens) (UniProt Q02750); experiment: Inhibition of MEK1 (unknown origin) at 0.1 uM relative to control; values are per cent of control
[28] = biological target: Epidermal growth factor receptor (Homo sapiens) (UniProt P00533); experiment: Inhibition of EGFR (unknown origin) at 0.1 uM relative to control; values are per cent of control
[29] = biological target: Activated CDC42 kinase 1 (Homo sapiens) (UniProt Q07912); experiment: Inhibition of ACK1 (unknown origin) at 0.1 uM relative to control; values are per cent of control
[30] = biological target: Angiopoietin-1 receptor (Homo sapiens) (UniProt Q02763); experiment: Inhibition of Tie2 (unknown origin) at 0.1 uM relative to control; values are per cent of control
[31] = biological target: Proto-oncogene tyrosine-protein kinase Src (Homo sapiens) (UniProt P12931); experiment: Inhibition of c-SRC (unknown origin) at 0.1 uM relative to control; values are per cent of control
Homo sapiens = species on record: Homo sapiens; experiment: Inhibition of CDK2/cyclin A (unknown origin) at 0.1 uM relative to control; values are per cent of control

Sequence of Focal adhesion kinase 1 (Mus musculus) (P34152 whole entry): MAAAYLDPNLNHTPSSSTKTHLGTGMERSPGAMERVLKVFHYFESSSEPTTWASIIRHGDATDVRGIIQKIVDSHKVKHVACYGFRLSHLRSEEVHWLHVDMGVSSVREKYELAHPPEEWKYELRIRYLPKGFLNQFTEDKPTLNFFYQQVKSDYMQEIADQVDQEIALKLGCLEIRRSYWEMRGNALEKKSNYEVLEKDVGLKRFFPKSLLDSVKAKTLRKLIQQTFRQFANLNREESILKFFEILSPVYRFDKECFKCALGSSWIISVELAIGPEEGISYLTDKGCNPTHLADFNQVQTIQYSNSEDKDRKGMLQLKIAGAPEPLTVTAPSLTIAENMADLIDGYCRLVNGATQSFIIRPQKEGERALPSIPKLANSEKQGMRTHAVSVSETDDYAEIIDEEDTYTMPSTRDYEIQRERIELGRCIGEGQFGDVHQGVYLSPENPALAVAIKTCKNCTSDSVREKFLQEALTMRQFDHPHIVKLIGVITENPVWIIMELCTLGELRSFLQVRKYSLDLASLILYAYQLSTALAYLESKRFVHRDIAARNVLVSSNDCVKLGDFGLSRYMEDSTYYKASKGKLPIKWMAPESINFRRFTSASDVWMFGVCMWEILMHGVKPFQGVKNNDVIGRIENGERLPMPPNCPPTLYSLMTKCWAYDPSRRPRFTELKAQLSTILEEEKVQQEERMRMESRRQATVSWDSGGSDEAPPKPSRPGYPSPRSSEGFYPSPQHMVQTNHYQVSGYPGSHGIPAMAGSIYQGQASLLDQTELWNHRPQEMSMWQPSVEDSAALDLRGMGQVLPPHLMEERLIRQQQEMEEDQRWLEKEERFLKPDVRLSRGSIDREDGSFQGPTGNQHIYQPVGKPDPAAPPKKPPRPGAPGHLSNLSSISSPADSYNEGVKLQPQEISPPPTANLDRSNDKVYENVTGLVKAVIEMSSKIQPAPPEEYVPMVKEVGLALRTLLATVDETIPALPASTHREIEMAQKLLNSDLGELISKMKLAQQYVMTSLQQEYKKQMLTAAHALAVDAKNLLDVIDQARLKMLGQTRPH
Sequence of Tyrosine-protein kinase Lck (Homo sapiens) (P06239 2-509 limits assumed): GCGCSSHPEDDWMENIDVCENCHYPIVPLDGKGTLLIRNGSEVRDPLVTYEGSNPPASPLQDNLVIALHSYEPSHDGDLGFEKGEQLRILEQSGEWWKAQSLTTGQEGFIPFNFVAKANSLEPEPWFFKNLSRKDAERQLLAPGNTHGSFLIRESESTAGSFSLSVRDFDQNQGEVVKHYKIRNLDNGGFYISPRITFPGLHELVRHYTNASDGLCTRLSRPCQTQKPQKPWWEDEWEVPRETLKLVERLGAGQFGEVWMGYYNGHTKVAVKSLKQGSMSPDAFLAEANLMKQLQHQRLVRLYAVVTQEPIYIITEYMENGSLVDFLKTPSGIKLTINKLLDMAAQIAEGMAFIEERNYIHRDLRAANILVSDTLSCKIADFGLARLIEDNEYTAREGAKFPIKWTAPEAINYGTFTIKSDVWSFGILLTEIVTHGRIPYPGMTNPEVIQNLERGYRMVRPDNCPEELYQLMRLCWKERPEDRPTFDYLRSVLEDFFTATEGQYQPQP
Sequence of Proto-oncogene tyrosine-protein kinase Src (Homo sapiens) (P12931 2-536 limits assumed): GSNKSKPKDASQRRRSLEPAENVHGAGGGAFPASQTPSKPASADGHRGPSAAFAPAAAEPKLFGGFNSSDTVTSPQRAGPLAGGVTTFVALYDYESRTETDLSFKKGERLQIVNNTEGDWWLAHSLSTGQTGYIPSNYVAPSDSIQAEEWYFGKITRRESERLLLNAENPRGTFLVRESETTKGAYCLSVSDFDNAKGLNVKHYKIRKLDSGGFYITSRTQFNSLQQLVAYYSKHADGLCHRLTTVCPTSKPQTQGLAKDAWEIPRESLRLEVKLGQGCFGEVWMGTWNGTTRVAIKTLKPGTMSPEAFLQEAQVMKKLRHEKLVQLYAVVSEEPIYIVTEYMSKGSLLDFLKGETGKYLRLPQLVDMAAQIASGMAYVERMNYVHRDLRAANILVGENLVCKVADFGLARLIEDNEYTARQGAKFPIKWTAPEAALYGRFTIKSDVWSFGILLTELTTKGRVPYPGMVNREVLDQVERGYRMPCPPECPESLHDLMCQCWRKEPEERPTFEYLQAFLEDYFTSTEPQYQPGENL
Sequence of Tyrosine-protein kinase Fyn (Homo sapiens) (P06241 2-537 limits assumed): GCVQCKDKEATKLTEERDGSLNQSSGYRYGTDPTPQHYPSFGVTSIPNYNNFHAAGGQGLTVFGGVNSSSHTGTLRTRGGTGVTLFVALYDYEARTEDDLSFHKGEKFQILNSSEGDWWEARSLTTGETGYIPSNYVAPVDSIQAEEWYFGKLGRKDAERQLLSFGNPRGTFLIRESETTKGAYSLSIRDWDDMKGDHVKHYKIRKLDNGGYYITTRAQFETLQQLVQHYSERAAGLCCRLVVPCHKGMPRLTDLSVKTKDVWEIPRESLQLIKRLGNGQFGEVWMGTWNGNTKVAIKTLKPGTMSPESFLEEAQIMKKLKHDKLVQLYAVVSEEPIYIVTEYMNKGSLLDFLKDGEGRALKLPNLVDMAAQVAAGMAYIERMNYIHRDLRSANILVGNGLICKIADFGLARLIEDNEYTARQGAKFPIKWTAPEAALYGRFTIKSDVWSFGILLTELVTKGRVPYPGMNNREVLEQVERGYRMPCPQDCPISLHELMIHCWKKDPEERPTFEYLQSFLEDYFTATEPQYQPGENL
Sequence of Serine/threonine-protein kinase Nek6 (Homo sapiens) (Q9HC98 whole entry): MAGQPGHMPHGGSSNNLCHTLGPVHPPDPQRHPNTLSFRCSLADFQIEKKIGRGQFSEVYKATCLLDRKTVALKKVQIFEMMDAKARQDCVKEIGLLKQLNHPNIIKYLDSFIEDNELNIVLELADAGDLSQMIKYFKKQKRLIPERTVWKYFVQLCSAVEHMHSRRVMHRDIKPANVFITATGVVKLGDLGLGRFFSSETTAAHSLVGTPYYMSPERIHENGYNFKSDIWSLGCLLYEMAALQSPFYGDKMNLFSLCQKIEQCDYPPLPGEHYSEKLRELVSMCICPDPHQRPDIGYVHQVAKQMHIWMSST
Sequence of Tyrosine-protein kinase JAK2 (Homo sapiens) (O60674 whole entry): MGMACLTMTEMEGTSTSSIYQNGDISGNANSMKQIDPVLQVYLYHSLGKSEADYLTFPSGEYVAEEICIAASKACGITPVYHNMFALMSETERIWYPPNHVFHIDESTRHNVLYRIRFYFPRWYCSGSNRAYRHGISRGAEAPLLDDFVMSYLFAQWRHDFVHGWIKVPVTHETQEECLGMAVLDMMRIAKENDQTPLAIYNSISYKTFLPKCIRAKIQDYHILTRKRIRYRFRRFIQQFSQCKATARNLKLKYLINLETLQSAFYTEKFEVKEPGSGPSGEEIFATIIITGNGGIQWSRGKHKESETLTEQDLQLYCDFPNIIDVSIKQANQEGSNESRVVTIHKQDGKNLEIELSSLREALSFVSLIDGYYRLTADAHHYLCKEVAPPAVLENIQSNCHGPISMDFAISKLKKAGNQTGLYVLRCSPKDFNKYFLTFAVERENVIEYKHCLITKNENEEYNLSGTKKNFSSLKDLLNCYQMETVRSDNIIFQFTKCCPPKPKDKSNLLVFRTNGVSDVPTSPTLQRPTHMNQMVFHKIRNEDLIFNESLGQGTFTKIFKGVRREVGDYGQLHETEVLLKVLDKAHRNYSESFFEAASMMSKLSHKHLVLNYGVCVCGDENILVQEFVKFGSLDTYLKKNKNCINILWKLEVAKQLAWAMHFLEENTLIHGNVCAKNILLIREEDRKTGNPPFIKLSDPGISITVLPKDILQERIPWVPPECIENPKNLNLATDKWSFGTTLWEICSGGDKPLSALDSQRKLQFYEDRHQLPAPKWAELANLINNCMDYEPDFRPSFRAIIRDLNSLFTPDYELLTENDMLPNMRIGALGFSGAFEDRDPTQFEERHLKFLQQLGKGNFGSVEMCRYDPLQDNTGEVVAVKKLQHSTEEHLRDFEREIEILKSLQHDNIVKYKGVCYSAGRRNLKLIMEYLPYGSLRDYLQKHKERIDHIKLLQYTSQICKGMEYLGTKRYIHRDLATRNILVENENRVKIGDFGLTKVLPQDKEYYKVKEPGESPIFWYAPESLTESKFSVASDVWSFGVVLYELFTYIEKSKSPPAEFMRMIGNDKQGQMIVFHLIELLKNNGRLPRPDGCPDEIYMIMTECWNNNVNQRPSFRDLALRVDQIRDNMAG
Sequence of Mast/stem cell growth factor receptor Kit (Homo sapiens) (P10721 whole entry): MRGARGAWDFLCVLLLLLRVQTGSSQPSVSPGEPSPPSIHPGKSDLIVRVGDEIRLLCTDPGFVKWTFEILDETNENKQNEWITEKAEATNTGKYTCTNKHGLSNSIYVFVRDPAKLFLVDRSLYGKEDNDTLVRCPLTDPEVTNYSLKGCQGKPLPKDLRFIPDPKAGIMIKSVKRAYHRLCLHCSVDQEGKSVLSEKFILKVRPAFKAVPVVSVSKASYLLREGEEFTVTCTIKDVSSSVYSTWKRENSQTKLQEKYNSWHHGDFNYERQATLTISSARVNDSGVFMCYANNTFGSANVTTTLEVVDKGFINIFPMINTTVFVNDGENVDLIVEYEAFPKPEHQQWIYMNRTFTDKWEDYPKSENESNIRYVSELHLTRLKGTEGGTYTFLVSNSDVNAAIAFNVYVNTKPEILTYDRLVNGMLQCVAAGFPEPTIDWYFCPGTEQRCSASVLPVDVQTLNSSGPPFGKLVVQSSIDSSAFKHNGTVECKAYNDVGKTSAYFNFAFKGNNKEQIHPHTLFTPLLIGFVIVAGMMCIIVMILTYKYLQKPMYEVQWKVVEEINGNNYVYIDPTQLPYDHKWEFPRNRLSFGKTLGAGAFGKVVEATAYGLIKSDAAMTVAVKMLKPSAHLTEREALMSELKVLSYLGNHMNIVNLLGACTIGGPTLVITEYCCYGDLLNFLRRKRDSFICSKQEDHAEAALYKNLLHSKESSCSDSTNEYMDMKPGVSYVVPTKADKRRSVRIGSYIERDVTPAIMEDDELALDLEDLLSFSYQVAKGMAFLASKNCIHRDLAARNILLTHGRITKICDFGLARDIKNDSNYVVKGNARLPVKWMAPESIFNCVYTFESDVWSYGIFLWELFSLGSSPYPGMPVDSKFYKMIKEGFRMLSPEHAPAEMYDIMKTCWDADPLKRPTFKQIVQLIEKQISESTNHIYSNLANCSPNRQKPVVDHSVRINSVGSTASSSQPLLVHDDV

## CNC(=O)c1ccccc1Nc1cc(Nc2ccc(N3CCOCC3)cc2OC)ncc1C(F)(F)F [VS-4718]
[1]
  inhibition: Active
[2]
  half-life: 32 min
[3]
  inhibition: Active
[4]
  inhibition: inactive
4T1 [5]
  Activity: 40%
4T1 [6]
  inhibition: Dose-Dependent Effect
4T1 [7]
  Activity: inactive
4T1 [8]
  Activity: Active
4T1 [9]
  Activity: 10.5%
4T1 [10]
  Activity: 5.6%
4T1 [11]
  Activity: Active
4T1 [12]
  Activity: Active
4T1 [13]
  Activity: inactive
4T1 [14]
  Activity: inactive
4T1 [15]
  inhibition: Dose-Dependent Effect
4T1 [16]
  inhibition: Active
ID8
  Activity: Dose-Dependent Effect
[17]
  residual activity: 32%
[18]
  residual activity: 96%
[19]
  residual activity: 107%
[20]
  residual activity: 76%
[21]
  residual activity: 118%
[22]
  residual activity: 99%
[23]
  residual activity: 122%
[24]
  residual activity: 150%
[25]
  residual activity: 72%
[26]
  residual activity: 90%
[27]
  residual activity: 79%
[28]
  residual activity: 99%
[29]
  residual activity: 56%
[30]
  residual activity: 97%
[31]
  residual activity: 98%
Homo sapiens
  residual activity: 91%
